From US12594268B2, “Methods of treating Fabry disease in patients having a mutation in the GLA gene” (Amicus Therapeutics, Inc., priority 2018, dated 2026) come the findings set out here.

Where a chain is given by its changes, count along the chain named.

Type in all cases: cell-based
In experiment [1] the target is T1, α-Gal A mutant form T194A (Homo sapiens, UniProt P06280, T194A).
T1 construct: expressed in transfected cells; host or cells: HEK-293
T1 sequence (P06280 32-429 T194A): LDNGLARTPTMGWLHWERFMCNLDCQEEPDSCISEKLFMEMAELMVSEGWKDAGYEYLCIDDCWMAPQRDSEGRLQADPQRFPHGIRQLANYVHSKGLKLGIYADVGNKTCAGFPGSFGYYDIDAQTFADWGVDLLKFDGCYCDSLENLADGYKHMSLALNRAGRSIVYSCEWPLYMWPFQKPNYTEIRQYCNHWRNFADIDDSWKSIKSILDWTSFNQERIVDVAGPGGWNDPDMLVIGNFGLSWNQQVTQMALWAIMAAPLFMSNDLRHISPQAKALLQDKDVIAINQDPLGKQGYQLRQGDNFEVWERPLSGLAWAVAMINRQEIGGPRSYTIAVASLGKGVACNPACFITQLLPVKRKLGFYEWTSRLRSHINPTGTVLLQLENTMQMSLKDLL
The experiment can be described thus: α-Gal A activity in lysates of transfected HEK-293 cells, T194A. How it is done: (§1) Baseline and 10 μM migalastat α-Gal A activity: Differences in the α-Gal A activity between lysates incubated in the absence and presence of 10 μM migalastat were determined using a one-tailed, Mann Whitney U test; an increase at 10 μM migalastat with a p<0.05 was considered significant.
(§2) 10 μM migalastat α-Gal A activity (% WT)=(α-Gal A activity in mutant transfected cell lysates incubated with 10 μM migalastat÷α-Gal A activity in wild-type transfected cell lysates without migalastat)*100.
(§3) Absolute increase (% WT)=is the 10 μM migalastat α-Gal A activity (% WT) minus the baseline α-Gal A activity (% WT).
(§4) Relative increase is the 10 μM migalastat α-Gal A activity in mutant transfected cell lysates÷baseline α-Gal A activity in mutant transfected cell lysates incubated without migalastat.

In experiment [2] the target is T2, α-Gal A mutant form A156S (Homo sapiens, UniProt P06280, A156S).
T2 construct: expressed in transfected cells; host or cells: HEK-293
T2 sequence (P06280 32-429 A156S): T1 sequence (P06280 32-429 T194A) with A125S, A163T
The experiment can be described thus: α-Gal A activity in lysates of transfected HEK-293 cells, A156S. How it is done: as §1, §2, §3, §4

The target in experiment [3] is T3, α-Gal A mutant form E338V (Homo sapiens, UniProt P06280, E338V).
T3 construct: expressed in transfected cells; host or cells: HEK-293
T3 sequence (P06280 32-429 E338V): T1 sequence (P06280 32-429 T194A) with A163T, E307V
Put plainly: α-Gal A activity in lysates of transfected HEK-293 cells, E338V. The protocol:
as §1, §2, §3, §4

The target of a further experiment is T4, α-Gal A mutant form D33H (Homo sapiens, UniProt P06280, D33H).
T4 construct: expressed in transfected cells; host or cells: HEK-293
T4 sequence (P06280 32-429 D33H): T1 sequence (P06280 32-429 T194A) with D2H, A163T
Put plainly: α-Gal A activity in lysates of transfected HEK-293 cells, D33H. The protocol: as §1, §2, §3, §4

The target of experiment [4] is T5, α-Gal A mutant form P380L (Homo sapiens, UniProt P06280, P380L).
T5 construct: expressed in transfected cells; host or cells: HEK-293
T5 sequence (P06280 32-429 P380L): T1 sequence (P06280 32-429 T194A) with A163T, P349L
The experiment can be described thus: α-Gal A activity in lysates of transfected HEK-293 cells, P380L. How it is done:
as §1, §2, §3, §4

[5] abbreviates: 10 μM migalastat minus baseline.
The mark [6] stands for this setting: 10 μM migalastat ÷ baseline activity.
Where [7] appears, read: HEK-293 lysates, 10 nM migalastat as printed, 5 days, mean ± SEM.
The mark [8] stands for this setting: HEK-293 lysates, 10 μM migalastat, 5 days, mean ± SEM.

As to `OC[C@H]1NC[C@H](O)[C@@H](O)[C@H]1O` [migalastat, (2R,3S,4R,5S)-2-(hydroxymethyl) piperdine-3,4,5-triol], the “Absolute increase (% WT)” value in experiment [1] (setting [5]) is recorded as 19.7 % WT; in experiment [2] (setting [5]), 18.4 % WT; in experiment [3] (setting [5]), 24.7 % WT; at α-Gal A mutant form D33H (setting [5]), 32.7 % WT; in experiment [4] (setting [5]), 7.1 % WT. Moreover, the Relative increase in experiment [1] (setting [6]) is 2.75; in experiment [2] (setting [6]), 1.29; in experiment [3] (setting [6]), 1.83; at α-Gal A mutant form D33H (setting [6]), 1.93; in experiment [4] (setting [6]), 2.98. For the same compound, the “10 nM migalastat α-Gal A activity” value in experiment [1] (setting [7]) came to 10315 ± 459 nmol/mg/h; on α-Gal A mutant form D33H (setting [7]), 24908 ± 1775 nmol/mg/h. The “10 μM migalastat α-Gal A activity (% WT)” value in experiment [1] (setting [8]) was 30.5 ± 2.0 % WT; in experiment [2] (setting [8]), 85.1 ± 53 % WT; in experiment [3] (setting [8]) it was 54.8 ± 2.2 % WT; at α-Gal A mutant form D33H (setting [8]), 68.8 ± 4.3 % WT; in experiment [4] (setting [8]), 10.6 ± 1.0 % WT. For the same compound, the “10 μM migalastat α-Gal A activity” value turned out to be 31597 ± 2293 nmol/mg/h in experiment [2] (setting [8]), 21807 ± 845 nmol/mg/h in experiment [3] (setting [8]) and 4248 ± 369 nmol/mg/h in experiment [4] (setting [8]).
